Laboratory results taken from patent US20110237640A1, “PYRAZOLE PHENYL DERIVATIVES” (priority 2004, published 2011).

How the values were obtained:
[1] = molecular target: T1, GST-PPARα-LBD fusion protein (Homo sapiens, UniProt Q07869); assay: PPARα radioligand binding assay (SPA)
T1 construct: PPARα (aa 167 to 469); made in house; host or cells: E. coli BL21(pLysS)
T1 sequence (Q07869 167-468 limits assumed): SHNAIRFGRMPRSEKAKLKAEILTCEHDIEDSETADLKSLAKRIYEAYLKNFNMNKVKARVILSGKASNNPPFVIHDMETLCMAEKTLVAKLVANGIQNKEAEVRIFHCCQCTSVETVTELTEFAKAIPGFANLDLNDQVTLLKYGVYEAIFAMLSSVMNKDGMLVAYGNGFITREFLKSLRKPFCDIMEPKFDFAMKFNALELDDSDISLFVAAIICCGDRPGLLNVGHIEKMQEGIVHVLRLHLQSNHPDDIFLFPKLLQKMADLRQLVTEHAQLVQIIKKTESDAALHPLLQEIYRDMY
Text: (§1) Full-length cDNA clones for humans PPARδ and PPARα and mouse PPARγ were obtained by RT-PCR from human adipose and mouse liver cRNA, respectively, cloned into plasmid vectors and verified by DNA sequencing. Bacterial and mammalian expression vectors were constructed to produce glutathione-s-transferase (GST) and Gal4 DNA binding domain proteins fused to the ligand binding domains (LBD) of PPARδ (aa 139 to 442), PPARγ (aa 174 to 476) and PPARα (aa 167 to 469). To accomplish this, the portions of the cloned sequences encoding the LBDs were amplified from the full-length clones by PCR and then subcloned into the plasmid vectors. Final clones were verified by DNA sequence analysis.
(§2) Induction, expression, and purification of GST-LBD fusion proteins were performed in E. coli strain BL21(pLysS) cells by standard methods (Ref: Current Protocols in Molecular Biology, Wiley Press, edited by Ausubel et al.).
(§3) PPARαreceptor binding was assayed in TKE50 (50 mM Tris-HCl, pH 8, 50 mM KCl, 2 mM EDTA, 0.1 mg/ml fatty acid-free BSA and 10 mM DTT). […] All binding assays were performed in 96 well plates and the amount of bound ligand measured on a Packard TopCount using OptiPlates (Packard). Nonspecific binding was determined in the presence of 10^−4 M unlabelled compound. […]

[2] = molecular target: T2, GST-PPARγ-LBD fusion protein (Mus musculus, UniProt P37238); assay: PPARγ radioligand binding assay (SPA)
T2 construct: PPARγ (aa 174 to 476); made in house; host or cells: E. coli BL21(pLysS)
T2 sequence (P37238 204-505): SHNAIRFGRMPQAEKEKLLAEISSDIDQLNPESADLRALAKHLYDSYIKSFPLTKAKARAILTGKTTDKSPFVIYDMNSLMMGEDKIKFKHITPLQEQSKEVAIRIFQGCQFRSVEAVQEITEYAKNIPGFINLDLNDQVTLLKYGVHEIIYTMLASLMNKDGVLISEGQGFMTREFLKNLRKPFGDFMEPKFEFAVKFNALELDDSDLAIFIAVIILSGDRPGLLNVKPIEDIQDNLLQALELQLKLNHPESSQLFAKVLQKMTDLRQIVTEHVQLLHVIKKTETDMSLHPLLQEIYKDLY
Text: as §1, §2
as §3, with “PPARγ receptor” for “PPARαreceptor”

[3] = molecular target: T3, pFA-PPARδ-LBD in BHK21 cells (Homo sapiens, UniProt Q03181); assay: Luciferase transcriptional reporter gene assay (transactivation), PPARδ; type: cell-based; conditions: for EC50: 24 hours with compound; for PPARδ efficacy relative to reference compound: reference PPARδ compound set to 100%
T3 construct: PPARδ (aa 139 to 442); expressed in transfected cells; host or cells: BHK21 (ATCC CCL10)
T3 sequence (Q03181 139-441 limits assumed): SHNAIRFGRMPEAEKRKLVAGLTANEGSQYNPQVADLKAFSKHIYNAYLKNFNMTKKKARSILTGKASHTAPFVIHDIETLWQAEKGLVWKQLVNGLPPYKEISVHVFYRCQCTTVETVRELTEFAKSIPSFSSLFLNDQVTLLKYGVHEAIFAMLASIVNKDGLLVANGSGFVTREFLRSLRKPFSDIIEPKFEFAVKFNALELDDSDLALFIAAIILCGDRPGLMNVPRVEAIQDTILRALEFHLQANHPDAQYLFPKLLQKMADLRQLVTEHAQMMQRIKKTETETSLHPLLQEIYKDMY
Text: as §1
(§4) Baby hamster kidney cells (BHK21 ATCC CCL10) were grown in DMEM medium containing 10% FBS at 37° C. in a […]:5% CO2 atmosphere. Cells were seeded in 6 well plates at a density of 10^5 cells/well and then batch-transfected with either the pFA-PPARδ-LBD, pFA-PPARγ-LBD or pFA-PPARα-LBD expression plasmids plus a reporter plasmid (to monitor transfection efficiency). […] Six hours following transfection, the cells were harvested by trypsinization and seeded in 96 well plates at a density of 10^4 cells/well. After 24 hours the medium was removed and replaced with 100 ul of phenol red-free medium containing the corresponding test compounds or control ligands (at a final DMSO concentration of 0.1%). Following incubation of the cells for 24 hours with compounds, 50 μl of the supernatant was discarded and then 50 μl of Luciferase Constant—Light Reagent (Roche Molecular Biochemicals) was added to lyse the cells and initiate the luciferase reaction. Luminescence for luciferase was measured in a Packard TopCount. Transcriptional activation in the presence of a test substance was expressed as fold-activation over cells incubated in the absence of the substance. The signals were normalized against plate-specific controls (DMSO alone) and the fold-stimulation of luciferase activity observed with specific and selective PPARα((2(S)-2-(2-benzoyl-phenylamino)-3-{4-[2-(5-methyl-2-phenyl-oxazol-4-yl)-ethoxy]-phenyl}-propionic acid), PPARγ (Rosiglitazone) and PPARδ ({2-methyl-4-[4-methyl-2-(4-trifluoromethyl-phenyl)-thiazol-5-ylmethylsulfanyl]-phenoxy}-acetic acid) reference compounds was set to 100%. EC50 values were calculated using the XLfit program (ID Business Solutions Ltd. UK).

[4] = molecular target: T4, pFA-PPARα-LBD in BHK21 cells (Homo sapiens, UniProt Q07869); assay: Luciferase transcriptional reporter gene assay (transactivation), PPARα; type: cell-based; conditions: for EC50: 24 hours with compound; for PPARα maximal activation (% of reference compound): reference PPARα compound set to 100%
T4 construct: PPARα (aa 167 to 469); expressed in transfected cells; host or cells: BHK21 (ATCC CCL10)
T4 sequence (Q07869 167-468 limits assumed): T1 sequence (Q07869 167-468 limits assumed)
Text: as §1, §4

[5] = molecular target: T5, PPARδ receptor (GST-PPAR-LBD fusion protein) (Homo sapiens, UniProt Q03181); assay: PPARδ radioligand binding assay (SPA)
T5 construct: PPARδ (aa 139 to 442); made in house; host or cells: E. coli BL21(pLysS)
T5 sequence (Q03181 139-441 limits assumed): T3 sequence (Q03181 139-441 limits assumed)
Text: as §1, §2
PPARδ receptor binding was assayed in HNM10 (50 mM Hepes, pH 7.4, 10 mM NaCl, 5 mM MgCl2, 0.15 mg/ml fatty acid-free BSA and 15 mM DTT). […] Radioligand was added and the reaction incubated at RT for 1 h and scintillation proximity counting performed in the presence of test compounds was determined. All binding assays were performed in 96 well plates and the amount of bound ligand was measured on a Packard TopCount using OptiPlates (Packard). […]

**Q.** How did the IC50 [1] turn out when `Cc1cc(OCc2cc(-c3ccc(OC(F)(F)F)cc3)nn2C)ccc1OC(C)(C)C(=O)O` [Example 1, 2-Methyl-2-{2-methyl-4-[2-methyl-5-(4-trifluoromethoxy-phenyl)-2H-pyrazol-3-ylmethoxy]-phenoxy}-propionic acid] was run?
**A.** 0.166 µM

**Q.** And the IC50 [2]?
**A.** ≥ 10 µM

**Q.** And the EC50 [3]?
**A.** 0.2 µM

**Q.** What about the “PPARδ efficacy relative to reference compound” value [3] of the same molecule?
**A.** 59%

**Q.** And the EC50 [4]?
**A.** 0.38 µM

**Q.** What about the “PPARα maximal activation (% of reference compound)” value [4] of the same molecule?
**A.** 100%

**Q.** What about the IC50 [5] of the same molecule?
**A.** 0.144 µM

**Q.** With `Cc1cc(OCc2cc(-c3ccc(OC(F)(F)F)cc3)nn2CC(F)(F)F)ccc1OC(C)(C)C(=O)O` [Example 6, 2-Methyl-2-{2-methyl-4-[2-(2,2,2-trifluoro-ethyl)-5-(4-trifluoromethoxy-phenyl)-2H-pyrazol-3-ylmethoxy]-phenoxy}-propionic acid] as the molecule, how does the IC50 [1] read?
**A.** 0.212 µM

**Q.** And the IC50 [2]?
**A.** ≥ 10 µM

**Q.** What about the EC50 [3] of the same molecule?
**A.** 0.096 µM

**Q.** What about the “PPARδ efficacy relative to reference compound” value [3] of the same molecule?
**A.** 140%

**Q.** What about the EC50 [4] of the same molecule?
**A.** 0.16 µM

**Q.** And the “PPARα maximal activation (% of reference compound)” value [4]?
**A.** 120%

**Q.** And the IC50 [5]?
**A.** 0.222 µM
